“Also recorded” adds a separate entry of the source.
What was measured:
[1] = tested on: phospho c-Jun (JNK) in human skin; experiment: UVB-irradiated human skin, phospho c-Jun IHC (3-way crossover study); type: in vivo; conditions: for median subjective score of phospho c-Jun: scale 0-4, placebo score 4
Protocol: The inhibitory effect of JNKi-1 on JNK was evaluated by assessing the status of the downstream substrate c-Jun (“cJun”) and phospho-c-Jun (or “p-cJun”) following UV irradiation of human skin.
The study was designed as randomized, double blind, placebo controlled, multiple dose, 3-way crossover study. Fifteen subjects were randomized to one of 3 sequences (5 subjects per sequence) as outlined below (see Table 3). There was a 7-day to 10 day washout period (no more than 14 days) from the last dose of the previous period to the first dose of the next period.
Fifteen patients enrolled, 14 completed the study and were included in the PD and PK analyses; all were healthy Caucasian male volunteers with Fitzpatrick skin type 2. The mean age was […] (20-49 years) and weight was 81 kg (64-96 kg). On the evening of Day-1, patients started fasting (at least an 8-hour fast prior to dosing on Day 1). Subjects received treatment A, B or C in Periods 1 to 3 under fasting conditions in an order based on the randomization scheme. Subjects went through the same procedures (except for the change in treatment) for all 3 periods, with the required washout in between periods. No strenuous activities were permitted during confinement. All efforts were made to keep activities, environment, food, procedures, and schedule between treatment periods identical.
On Day 6, subjects received a 2×MED UV dose to two sites on the buttock. One punch biopsy (approximately 3 mm in diameter by 0.8 mm in depth) was taken from one of the two UV irradiated sites. The punch biopsies were taken at 8 (±5 minutes) hours post UV exposure on Day 6.
Skin specimens from the biopsies was analyzed for phospho c-Jun and total c-Jun using IHC assay. Phospho c-Jun was quantified using a 0-4 subjective grading scales and/or objective scoring using an automated system, i.e. a laser scanning cytometer (LSC), evaluating the integrated intensity of staining measured optically.
Biopsies were analyzed following the procedures described below to evaluate phospho c-Jun and c-Jun expression using IHC assay. The method employed to assess JNK activation was a two antibody IHC assay that employed a primary antibody, directed against the target, and a secondary antibody conjugated with a chromogenic enzyme. Thus, the method was a two-step immunohistochemical assay designed to interrogate the target, c-Jun and phospho c-Jun. Any changes in JNK activity were measurable in the amounts of these target molecules, c-Jun and phospho c-Jun. The secondary antibody-reporter conjugate deposited a red color when incubated with the substrate reaction mix, thus marking the location of the primary antibody target complex. The red color was then recorded with standard bright-field illumination using a Nikon microscope. The microscope images were then photographed and electronic images were scored (blinded) by three independent and trained scorers using the following guidelines. A score of 0 indicated staining of 0-19% of the epithelial keratinocyte nuclei; a score of 1 indicated staining of 20-39% of the epithelial keratinocyte nuclei; a score of 2 indicated staining of 40-59% of the epithelial keratinocyte nuclei; a score of 3 indicated staining of 60-79% of the epithelial keratinocyte nuclei; and a score of 4 indicated staining of 80-100% of the epithelial keratinocyte nuclei. FIG. 21 depicts representative immunostaining for the respective scores.
For each tissue, a count of nuclei in the epithelial layer was obtained. All phospho c-Jun or c-Jun positive nuclei were counted as well as their integral (intensity). A score was calculated for each: score=(p-cJun or cJun positive nuclei×average Intensity)/Total nuclei.

[2] = tested on: phospho-c-Jun (JNK) in normal human epithelial keratinocytes (nHEK); experiment: UVB-stimulated JNK activation in nHEK cells (Western blot); type: cell-based
Protocol: Two in vitro systems, nHEK and the EpiDermFT™ skin model, were used in this study. The nHEK cells and EpiDermFT™ samples were pretreated with JNKi-1 at concentrations of 0.1, 3, and 10 μM prior to 60 mJ/cm^2 and 135 mJ/cm^2 UVB irradiation, respectively. After UV stimulation, the activities of JNK were measured as levels of phospho-c-Jun via immunoblotting of cell lysates using an anti-phospho-c-Jun S63 antibody. Phospho-Stat3 was also evaluated as a marker of JNK activation.
nHEK Model system. Normal human epithelial keratinocytes (nHEK) cells were grown after three passages. Cells were plated at 2×10^6/plate in 100 mm plates. Plates were incubated at 37° C., 5% CO2 for 5 days until ˜80% confluent. Each plate was washed with warm phosphate buffered saline (PBS) and replenished with 10 mL of media containing either 0, 0.1, 3, or 10 μM of JNKi-1 and incubated for 1 hour (hr) at 37° C. Eight mL of media were removed and set aside. Plates were irradiated with 60 mJ/cm^2 of UVB in a UV cross-linker machine and control plates were sham irradiated. The 8 mL of media set aside were returned to each plate and stored at 37° C. Cells were harvested at 30 minutes and 4 hr post UV treatment and lysed in ice cold cell extraction buffer. Lysates were stored at −80° C.
cells were pre-incubated with either dimethyl sulfoxide (DMSO) (FIG. 31, lanes 1, 2, and 12 to 15) or JNKi-1 at the indicated concentration (lanes 3 to 11) for 1 hr and then irradiated without (Control, lanes 1 and 2) or with UVB at 60 mJ/cm^2 (lanes 3 to 15). Cells were lysed 30 minutes after UV irradiation and cell lysates were subjected to sodium dodecyl sulfate polyacrylamide gel electrophoresis (SDS-PAGE) before Western blotting with anti-phospho-c-Jun antibody. […]
Western analysis: For Western blot analysis, 20 to 25 μg of total protein were applied to SDS-PAGE gels followed by electrophoresis and blotting. […] The intensity of each band was quantified by the Odyssey 2.1 software and exported into Excel for further analysis. […]

O[C@H]1CC[C@H](Nc2ncc3nc(Nc4c(F)cc(F)cc4F)n([C@H]4CCOC4)c3n2)CC1 [JNKi-1, 4-((9-((3S)-tetrahydro-3-furanyl)-8-((2,4,6-trifluorophenyl)amino)-9H-purin-2-yl)amino)-trans-cyclohexanol]
patients with reduced phospho c-Jun, subjective scoring ([1]; 75 mg QD x 6 days): 57% | patients with reduced phospho c-Jun, subjective scoring ([1]; 75 mg QD x 6 days, 2xMED UVB, biopsy 8 hours post UV): 8/14 | median subjective score of phospho c-Jun ([1]; 75 mg QD x 6 days): 3 | frequency of high phospho c-Jun subjective scores ([1]; 75 mg and 200 mg vs placebo): fewer subjects had high p-cJun scores; also recorded: fewer patients had high scores | phospho c-Jun by laser scanning cytometry (LSC) analysis ([1]; 75 mg or 200 mg): Decrease in phospho c-Jun was confirmed | odds ratio, phospho c-Jun scores 0, 1, 2 vs. scores 3, 4 (logistic regression) ([1]; 75 mg vs. placebo): 10.96 | patients with inhibited phospho c-Jun, subjective scoring ([1]; 200 mg QD x 6 days): 78% | patients with inhibited phospho c-Jun, subjective scoring ([1]; 200 mg QD x 6 days, 2xMED UVB, biopsy 8 hours post UV): 11/14 | median subjective score of phospho c-Jun ([1]; 200 mg QD x 6 days): 1 | odds ratio, phospho c-Jun scores 0, 1, 2 vs. scores 3, 4 (logistic regression) ([1]; 200 mg vs. placebo): 41.89 | elevation of phospho c-Jun induced by the UVB irradiation ([1]; oral, about 75 mg to about 200 mg, in a majority of patients): partially or completely inhibited | phospho c-Jun immunostaining, percentage of positive epithelial nuclei, Patient 15 ([1]; versus placebo): significantly decreased | IC50 ([2]; Homo sapiens, light or radiation study, nHEK, 1 hr pretreatment, UVB 60 mJ/cm^2, lysed 30 minutes after UV, read-out: IC50 for p-cJun): 100 to 3000 nM | UVB-induced JNK activation (phospho-c-Jun level), in words ([2]; nHEK, 0.1, 3, 10 μM): strongly Inhibits; also recorded: significantly blocks | inhibition of phospho-Stat3 ([2]; nHEK, 30 minutes post UV, data not shown): minimal

Source: US8680076B2, “Methods of treatment, improvement and prevention using haloaryl substituted aminopurines” (Signal Pharmaceuticals, LLC, priority 2010, dated 2014)
